Where two headings read alike, the source gives them in different places.
Experiments:
[1] = Pharmacokinetic study, 3-period crossover, plasma concentrations of Compound A by LC-MS/MS; format: in vivo, human; conditions: for AUC(0-inf) / AUC(0-t): human, plasma, oral, 50 mg, pediatric formulation, 50 mg single dose; for AUC(0-inf): read-out: AUC0-inf, mean; for AUC(0-t): read-out: AUC0-t, mean
Method: (§1) In this single center, open-label, randomized study, 24 subjects (8 per each arm) received Compound A adult immediate release tablet or granular formulation suitable for reconstitution formulation in a fasted or fed state (high fat meal) in a 3-period, 3-sequence crossover design. Compound A was formulated as a granular formulation suitable for reconstitution (“Compound A pediatric formulation”) as described herein.
(§2) A 50 mg dose was used in this adult PK study.
For each study period, subjects received one of the 3 following treatments:
(§3) Treatment A: Single doses of 50 mg Compound A pediatric formulation (1 sachet of granules) under fed conditions.
(§4) Treatment B: Single doses of 50 mg Compound A pediatric formulation (1 sachet of granules) under fasting conditions.
(§5) Treatment C: Single doses of 50 mg Compound A adult tablet formulation (1×50 mg IR tablet) under fasting conditions.
Three groups of 8 subjects were randomized to one of the following 3 sequences.
Following an overnight fast of at least 10 hours, subjects received a standardized high-fat, high calorie meal 30 minutes before administration. Subjects must have eaten the total content of this meal in 30 minutes or less.
Thirty minutes after the start of breakfast, subjects were administered the suspension (the contents of one sachet of the Compound A pediatric formulation [granules for oral suspension] was mixed thoroughly with 120 mL of water at ambient temperature). Thereafter, the glass was rinsed twice with approximately 60 mL of water at ambient temperature and the subject was asked to drink the 60 mL of suspension each time. A total of approximately 240 mL of water was administered with the formulation within 5 minutes.
Additional food was then withheld for at least 4 hours following administration. Water was provided as needed until 1 hour pre-dose. Water was allowed beginning 1 hour after the administration of the drug.
Subjects fasted overnight for a minimum of 10 hours prior to dosing.
Subjects were administered the Compound A suspension (the contents of one sachet [granules for oral suspension] was mixed thoroughly with 120 mL of water at ambient temperature). Thereafter, the glass was rinsed twice with approximately 60 mL of water at ambient temperature and the subject was asked to drink the 60 mL of suspension each time. A total of approximately 240 mL of water was administered with the formulation within 5 minutes.
Fasting continued for at least 4 hours following Compound A administration. Water was provided as needed until 1 hour pre-dose. Water was allowed beginning 1 hour after the administration of the drug.
A single dose of the Compound A IR tablet was administered with approximately 240 mL of water, starting at 09:00, to 1 subject per 2 minute intervals.
Fasting continued for at least 4 hours following administration. Water was provided as needed until 1 hour pre-dose. Water was allowed beginning 1 hour after the administration of the drug.
Serial PK samples were obtained pre-dose and at specific timepoints through 48 h post-dose Plasma concentrations of Compound A were determined using validated liquid chromatography with tandem mass spectrometry method.

[2] = Pharmacokinetic study, urinary excretion of unchanged Compound A; format: in vivo, human; conditions: for CL renal: human, urine, oral, 50 mg
Method: as §1, §2, §3, §4, §5
Overall (based on data from Cohorts 1 and 2), the fraction excreted in urine is less than 0.1%, thus the contribution of the urinary excretion in the disposition and elimination of the Compound A as a parent compound is negligible. The PK and statistical analysis were performed including all subjects with measurable pre-dose concentrations.

[3] = pediatric formulation 50 mg, fed vs fasted

## Cc1cc(S(=O)(=O)Nc2cscn2)c(F)cc1N(C)[C@H]1CCN(Cc2ccccc2)C1 [Compound A, (S)-4-((1-benzylpyrrolidin-3-yl)(methyl)amino)-2-fluoro-5-methyl-N-(thiazol-4-yl)benzenesulfonamide]
[1]; fasting
  AUC(0-inf): 11300 ng·h/mL
  AUC(0-t): 11100 ng·h/mL
[1]; fed (high-fat meal)
  AUC(0-inf): 11800 ng·h/mL
  AUC(0-t): 11700 ng·h/mL
[1]; [3]
  intra-subject CV % for AUC0-inf: 9%
  intra-subject CV % for AUC0-t: 11%
[1]; pediatric formulation 50 mg, fed vs fasted, 90% CI 97.98-107.58%
  GMR for AUC0-inf: 102.67%
[1]; pediatric formulation 50 mg, fed vs fasted, 90% CI 98.23-109.57%
  GMR for AUC0-t: 103.74%
[2]; pediatric formulation 50 mg, fasting
  CL renal: 0.05 mL/min
[2]; pediatric formulation 50 mg, fed
  CL renal: 0.055 mL/min
[2]; overall, based on data from Cohorts 1 and 2
  fraction excreted in urine: less than 0.1%
[2]; pediatric formulation 50 mg, fed vs fasting
  GMR for CLr: 115.56%

From US20230404913A1, “PHARMACEUTICAL FORMULATIONS FOR TREATING DISEASES ASSOCIATED WITH VOLTAGE-GATED SODIUM CHANNELS” (Xenon Pharmaceuticals, Inc., priority 2020, published 2023)
